Experimental data published in patent US10844077B2, “Thiazolyl-containing compounds for treating proliferative diseases” (Dana-Farber Cancer Institute, Inc., priority 2014, dated 2020).
Values joined by “and” are separate entries in the source; they are usually repeats but may differ in a detail not shown here. Equal values may be shown once.

What was measured:
Test in all cases: KINATIV assay
Assay type in all cases: cell-based
Settings in all cases: 1 μM, 90 minutes, BCWM.1 cells
[1] = molecular target: AKT1 (Homo sapiens (Human), UniProt P31749)
Method in brief: (§1)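 Steps: harvest and lyse cells; label lysate directly with ATP-biotin probe; identify and quantitate probe-bound kinases by ACTIVX.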

[2] = molecular target: AMPKa1 (Homo sapiens (Human), UniProt Q13131)
Method in brief: as §1

[3] = tested on: AMPKa1, AMPKa2
Method in brief: as §1

[4] = molecular target: BLK (Homo sapiens (Human), UniProt P51451)
Method in brief: as §1

[5] = molecular target: BRAF (Homo sapiens (Human), UniProt P15056)
Method in brief: as §1

[6] = molecular target: BTK (Homo sapiens (Human), UniProt Q06187)
BTK, sequence (Q06187 whole entry, looked up): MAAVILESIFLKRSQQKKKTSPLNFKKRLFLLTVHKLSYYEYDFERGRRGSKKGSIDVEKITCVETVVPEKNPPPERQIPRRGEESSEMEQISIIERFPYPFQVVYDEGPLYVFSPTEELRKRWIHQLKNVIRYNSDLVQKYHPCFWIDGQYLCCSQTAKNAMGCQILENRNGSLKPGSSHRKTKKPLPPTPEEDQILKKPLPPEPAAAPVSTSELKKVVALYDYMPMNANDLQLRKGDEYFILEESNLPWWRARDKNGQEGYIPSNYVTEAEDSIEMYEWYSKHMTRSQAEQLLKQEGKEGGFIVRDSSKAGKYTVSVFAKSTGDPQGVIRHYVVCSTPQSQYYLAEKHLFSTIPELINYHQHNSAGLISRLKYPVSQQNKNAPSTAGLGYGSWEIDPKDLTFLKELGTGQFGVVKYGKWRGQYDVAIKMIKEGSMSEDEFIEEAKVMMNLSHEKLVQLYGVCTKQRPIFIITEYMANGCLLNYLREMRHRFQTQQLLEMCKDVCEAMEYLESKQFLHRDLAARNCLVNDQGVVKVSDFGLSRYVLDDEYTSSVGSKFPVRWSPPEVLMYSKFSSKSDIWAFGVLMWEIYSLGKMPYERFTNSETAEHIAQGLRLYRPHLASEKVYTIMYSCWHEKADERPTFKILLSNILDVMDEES
Method in brief: as §1

[7] = molecular target: CASK (Homo sapiens (Human), UniProt O14936)
Method in brief: as §1

[8] = molecular target: CK1a (Homo sapiens (Human), UniProt P48729)
Method in brief: as §1

[9] = molecular target: CK2a1 (Homo sapiens (Human), UniProt P68400)
CK2a1, sequence (P68400 whole entry): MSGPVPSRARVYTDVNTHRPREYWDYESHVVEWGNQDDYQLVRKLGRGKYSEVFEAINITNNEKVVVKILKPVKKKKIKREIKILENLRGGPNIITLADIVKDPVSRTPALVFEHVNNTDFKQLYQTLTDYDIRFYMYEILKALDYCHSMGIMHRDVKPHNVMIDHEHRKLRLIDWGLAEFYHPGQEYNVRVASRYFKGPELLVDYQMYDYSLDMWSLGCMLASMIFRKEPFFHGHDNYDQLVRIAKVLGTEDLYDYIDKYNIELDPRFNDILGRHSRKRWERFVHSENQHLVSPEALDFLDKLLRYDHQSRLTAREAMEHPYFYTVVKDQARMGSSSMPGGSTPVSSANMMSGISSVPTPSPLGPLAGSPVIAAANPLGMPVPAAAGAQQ
Method in brief: as §1

[10] = molecular target: CSK (Homo sapiens (Human), UniProt P41240)
CSK, sequence (P41240 whole entry): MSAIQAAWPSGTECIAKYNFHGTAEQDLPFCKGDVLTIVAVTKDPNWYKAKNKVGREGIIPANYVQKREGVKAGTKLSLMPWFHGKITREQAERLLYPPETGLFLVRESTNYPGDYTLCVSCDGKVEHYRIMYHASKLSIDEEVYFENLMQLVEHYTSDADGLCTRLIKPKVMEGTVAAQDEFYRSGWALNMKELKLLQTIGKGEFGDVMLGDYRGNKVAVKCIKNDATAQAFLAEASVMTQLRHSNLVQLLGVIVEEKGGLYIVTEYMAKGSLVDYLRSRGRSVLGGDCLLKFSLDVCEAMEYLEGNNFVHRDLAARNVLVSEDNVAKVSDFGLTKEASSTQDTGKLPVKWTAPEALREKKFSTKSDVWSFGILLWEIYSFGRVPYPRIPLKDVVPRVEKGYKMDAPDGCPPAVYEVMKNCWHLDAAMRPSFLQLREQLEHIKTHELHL
Method in brief: as §1

[11] = molecular target: CaMK2d (Homo sapiens (Human), UniProt Q13557)
CaMK2d, sequence (Q13557 whole entry): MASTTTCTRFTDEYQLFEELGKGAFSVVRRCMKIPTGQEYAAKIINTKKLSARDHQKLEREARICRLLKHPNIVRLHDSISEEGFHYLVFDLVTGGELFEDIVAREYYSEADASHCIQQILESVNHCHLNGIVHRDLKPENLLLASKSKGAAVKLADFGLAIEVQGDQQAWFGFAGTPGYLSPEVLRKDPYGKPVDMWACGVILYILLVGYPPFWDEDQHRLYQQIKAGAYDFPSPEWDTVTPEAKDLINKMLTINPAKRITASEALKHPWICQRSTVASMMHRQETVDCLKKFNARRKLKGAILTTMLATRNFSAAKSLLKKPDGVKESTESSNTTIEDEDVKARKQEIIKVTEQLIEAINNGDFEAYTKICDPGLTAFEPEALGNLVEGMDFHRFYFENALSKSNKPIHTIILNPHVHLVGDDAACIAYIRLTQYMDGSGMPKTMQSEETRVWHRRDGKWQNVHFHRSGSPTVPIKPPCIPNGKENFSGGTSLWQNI
Method in brief: as §1

[12] = molecular target: EphB2 (Homo sapiens (Human), UniProt P29323)
Method in brief: as §1

[13] = molecular target: Erk1 (Homo sapiens (Human), UniProt P27361)
Erk1, sequence (P27361 whole entry): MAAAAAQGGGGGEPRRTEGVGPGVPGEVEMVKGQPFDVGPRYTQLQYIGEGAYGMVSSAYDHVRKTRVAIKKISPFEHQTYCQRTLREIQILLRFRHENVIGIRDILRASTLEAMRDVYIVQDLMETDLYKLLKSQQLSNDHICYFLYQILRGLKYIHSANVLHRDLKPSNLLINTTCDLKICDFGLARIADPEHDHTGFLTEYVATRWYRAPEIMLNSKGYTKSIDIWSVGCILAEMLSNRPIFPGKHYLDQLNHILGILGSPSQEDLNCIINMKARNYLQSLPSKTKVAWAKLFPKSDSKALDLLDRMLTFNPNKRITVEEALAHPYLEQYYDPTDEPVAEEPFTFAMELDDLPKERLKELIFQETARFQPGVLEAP
Method in brief: as §1

[14] = molecular target: Erk2 (Homo sapiens (Human), UniProt P28482)
Method in brief: as §1

[15] = molecular target: Erk5 (Homo sapiens (Human), UniProt Q13164)
Method in brief: as §1

[16] = molecular target: FES (Homo sapiens (Human), UniProt P07332)
Method in brief: as §1

[17] = molecular target: FGR (Homo sapiens (Human), UniProt P09769)
Method in brief: as §1

[18] = molecular target: ITPK1 (Homo sapiens (Human), UniProt Q13572)
Method in brief: as §1

[19] = molecular target: JAK1 (Homo sapiens (Human), UniProt P23458)
Method in brief: as §1

[20] = molecular target: MAP2K6 (Homo sapiens (Human), UniProt P52564)
MAP2K6, sequence (P52564 whole entry): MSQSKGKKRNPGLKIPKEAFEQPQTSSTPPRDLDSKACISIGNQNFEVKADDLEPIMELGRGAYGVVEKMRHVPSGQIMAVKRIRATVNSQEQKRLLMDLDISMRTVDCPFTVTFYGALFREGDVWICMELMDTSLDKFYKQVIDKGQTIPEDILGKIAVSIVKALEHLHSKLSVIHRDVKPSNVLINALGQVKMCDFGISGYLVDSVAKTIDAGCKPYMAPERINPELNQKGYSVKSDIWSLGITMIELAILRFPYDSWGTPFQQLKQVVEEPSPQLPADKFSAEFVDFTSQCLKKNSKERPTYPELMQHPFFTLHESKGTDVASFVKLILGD
Method in brief: as §1

[21] = molecular target: MAP3K3 (Homo sapiens (Human), UniProt Q99759)
Method in brief: as §1

[22] = molecular target: MAP3K6 (Homo sapiens (Human), UniProt O95382)
MAP3K6, sequence (O95382 whole entry): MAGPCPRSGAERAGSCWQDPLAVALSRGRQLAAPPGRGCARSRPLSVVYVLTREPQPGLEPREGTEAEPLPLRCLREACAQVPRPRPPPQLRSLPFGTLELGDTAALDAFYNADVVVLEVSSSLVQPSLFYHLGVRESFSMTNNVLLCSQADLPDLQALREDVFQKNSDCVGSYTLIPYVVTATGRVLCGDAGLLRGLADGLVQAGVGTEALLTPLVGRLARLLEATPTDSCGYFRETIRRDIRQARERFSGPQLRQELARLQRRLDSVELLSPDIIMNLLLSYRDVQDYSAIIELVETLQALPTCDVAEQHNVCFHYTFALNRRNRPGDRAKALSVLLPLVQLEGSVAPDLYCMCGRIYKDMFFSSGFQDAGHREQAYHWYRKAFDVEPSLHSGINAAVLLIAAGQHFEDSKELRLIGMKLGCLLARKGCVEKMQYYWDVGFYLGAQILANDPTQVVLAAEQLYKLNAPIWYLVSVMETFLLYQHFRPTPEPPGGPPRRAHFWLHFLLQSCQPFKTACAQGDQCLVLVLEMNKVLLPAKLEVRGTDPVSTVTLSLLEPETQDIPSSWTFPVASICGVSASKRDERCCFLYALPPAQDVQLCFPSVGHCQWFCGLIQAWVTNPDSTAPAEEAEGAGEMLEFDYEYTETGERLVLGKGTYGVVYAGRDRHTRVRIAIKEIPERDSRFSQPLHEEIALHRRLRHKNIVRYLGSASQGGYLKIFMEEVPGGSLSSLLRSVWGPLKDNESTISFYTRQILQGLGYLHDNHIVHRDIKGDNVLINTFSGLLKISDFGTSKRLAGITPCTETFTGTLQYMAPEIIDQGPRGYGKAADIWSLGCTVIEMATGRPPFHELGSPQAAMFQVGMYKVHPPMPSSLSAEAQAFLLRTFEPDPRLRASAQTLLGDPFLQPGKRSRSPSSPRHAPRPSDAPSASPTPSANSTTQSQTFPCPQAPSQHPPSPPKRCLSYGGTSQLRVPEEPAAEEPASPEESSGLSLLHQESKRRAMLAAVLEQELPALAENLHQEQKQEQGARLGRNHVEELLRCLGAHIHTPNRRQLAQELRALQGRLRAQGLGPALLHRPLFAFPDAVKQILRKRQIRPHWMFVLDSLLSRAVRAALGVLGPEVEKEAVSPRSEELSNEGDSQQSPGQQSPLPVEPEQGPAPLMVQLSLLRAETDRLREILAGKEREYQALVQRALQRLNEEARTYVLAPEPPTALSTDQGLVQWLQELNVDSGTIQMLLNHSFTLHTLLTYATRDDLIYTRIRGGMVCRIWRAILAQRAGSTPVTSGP
Method in brief: as §1

[23] = molecular target: MARK3 (Homo sapiens (Human), UniProt P27448)
Method in brief: as §1

[24] = tested on: MSK1, MSK2 domain1
Method in brief: as §1

[25] = molecular target: MSK2 domain1 (Homo sapiens (Human), UniProt O75676)
Method in brief: as §1

[26] = tested on: MYO3A, MYO3B
Method in brief: as §1

[27] = molecular target: NEK4 (Homo sapiens (Human), UniProt P51957)
Method in brief: as §1

[28] = tested on: NEK6, NEK7
Method in brief: as §1

[29] = molecular target: PEK (Homo sapiens (Human), UniProt Q9NZJ5)
Method in brief: as §1

[30] = molecular target: PI4KB (Homo sapiens (Human), UniProt Q9UBF8)
PI4KB, sequence (Q9UBF8 whole entry): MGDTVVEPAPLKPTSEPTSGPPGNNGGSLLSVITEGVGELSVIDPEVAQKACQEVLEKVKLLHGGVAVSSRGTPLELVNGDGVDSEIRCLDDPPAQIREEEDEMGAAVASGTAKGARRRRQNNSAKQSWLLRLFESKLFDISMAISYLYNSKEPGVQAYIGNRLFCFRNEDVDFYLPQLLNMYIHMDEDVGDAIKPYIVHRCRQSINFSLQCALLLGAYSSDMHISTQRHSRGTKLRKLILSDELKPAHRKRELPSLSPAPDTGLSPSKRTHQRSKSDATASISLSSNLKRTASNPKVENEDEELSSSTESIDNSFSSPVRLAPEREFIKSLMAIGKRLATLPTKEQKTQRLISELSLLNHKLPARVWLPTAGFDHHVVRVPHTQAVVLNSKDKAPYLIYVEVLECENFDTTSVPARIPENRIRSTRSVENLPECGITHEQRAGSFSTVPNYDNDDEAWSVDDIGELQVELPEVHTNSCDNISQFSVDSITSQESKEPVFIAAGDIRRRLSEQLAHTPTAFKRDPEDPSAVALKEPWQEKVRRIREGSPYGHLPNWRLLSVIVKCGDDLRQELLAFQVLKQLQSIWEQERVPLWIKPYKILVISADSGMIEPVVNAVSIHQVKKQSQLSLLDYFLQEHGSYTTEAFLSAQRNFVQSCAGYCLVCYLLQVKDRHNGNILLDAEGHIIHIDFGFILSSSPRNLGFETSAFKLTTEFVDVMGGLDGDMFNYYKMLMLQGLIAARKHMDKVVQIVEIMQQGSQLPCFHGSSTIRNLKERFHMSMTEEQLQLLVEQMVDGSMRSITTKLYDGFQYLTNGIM
Method in brief: as §1

[31] = molecular target: PIP5K3 (Homo sapiens (Human), UniProt Q9Y2I7)
Method in brief: as §1

[32] = molecular target: PKD2 (Homo sapiens (Human), UniProt Q9BZL6)
Method in brief: as §1

[33] = molecular target: PKN1 (Homo sapiens (Human), UniProt Q16512)
Method in brief: as §1

[34] = tested on: RSK1, RSK2, RSK3 domain1
Method in brief: as §1

[35] = molecular target: RSK2 domain2 (Homo sapiens (Human), UniProt P51812)
Method in brief: as §1

[36] = molecular target: RSKL1 (Homo sapiens (Human), UniProt Q96S38)
Method in brief: as §1

[37] = molecular target: SRC (Homo sapiens (Human), UniProt P12931)
Method in brief: as §1

[38] = molecular target: SRPK1 (Homo sapiens (Human), UniProt Q96SB4)
Method in brief: as §1

[39] = tested on: SRPK1, SRPK2
Method in brief: as §1

[40] = molecular target: STK33 (Homo sapiens (Human), UniProt Q9BYT3)
Method in brief: as §1

[41] = molecular target: TAK1 (Homo sapiens (Human), UniProt O43318)
Method in brief: as §1

C=CC(=O)N1CCC(Cn2ccc(Nc3ncc(C(=O)Nc4c(C)cccc4Cl)s3)n2)C1 (centres unmarked) [II-1]
% change of MS signal compared to control sample [1]: −17.8%
% change of MS signal compared to control sample [2]: 5.1%
% change of MS signal compared to control sample [3]: −19.4% and −27.3%
% change of MS signal compared to control sample [4]: >95%
% change of MS signal compared to control sample [5]: 6.9%
% change of MS signal compared to control sample [6]: 97.1% and >90%
% change of MS signal compared to control sample [7]: 29.4%
% change of MS signal compared to control sample [8]: −14.4%
% change of MS signal compared to control sample [9]: 24.7%
% change of MS signal compared to control sample [10]: 26.2% and 32.5%
% change of MS signal compared to control sample [11]: −14.8%
% change of MS signal compared to control sample [12]: >90%
% change of MS signal compared to control sample [13]: −17.6%
% change of MS signal compared to control sample [14]: −5.8%
% change of MS signal compared to control sample [15]: −14.2%
% change of MS signal compared to control sample [16]: −15.0%
% change of MS signal compared to control sample [17]: 87.8%
% change of MS signal compared to control sample [18]: 14.0%
% change of MS signal compared to control sample [19]: 5.4%
% change of MS signal compared to control sample [20]: −8.3% and −12.6%
% change of MS signal compared to control sample [21]: 13.7%
% change of MS signal compared to control sample [22]: 18.9%
% change of MS signal compared to control sample [23]: 18.4%
% change of MS signal compared to control sample [24]: −37.4%
% change of MS signal compared to control sample [25]: −33.9%
% change of MS signal compared to control sample [26]: 12.9%
% change of MS signal compared to control sample [27]: 18.5%
% change of MS signal compared to control sample [28]: −0.2%
% change of MS signal compared to control sample [29]: −31.0%
% change of MS signal compared to control sample [30]: 7.2% and 13.7%
% change of MS signal compared to control sample [31]: 16.3%
% change of MS signal compared to control sample [32]: 12.7%
% change of MS signal compared to control sample [33]: 20.9%
% change of MS signal compared to control sample [34]: −52.0%
% change of MS signal compared to control sample [35]: 9.7%
% change of MS signal compared to control sample [36]: 13.7%
% change of MS signal compared to control sample [37]: >90%
% change of MS signal compared to control sample [38]: −4.7%
% change of MS signal compared to control sample [39]: 0.0%
% change of MS signal compared to control sample [40]: 11.0%
% change of MS signal compared to control sample [41]: 25.6%
